The values that follow come from article PMC6614837 (Nucleic Acids Research, 2019).

In experiment [1] the target is T1, RNase P holoenzyme from Thermotoga maritima (Thermotoga maritima, UniProt Q9X1H4).
T1 construct: made in house
T1 sequence (Q9X1H4 1-117): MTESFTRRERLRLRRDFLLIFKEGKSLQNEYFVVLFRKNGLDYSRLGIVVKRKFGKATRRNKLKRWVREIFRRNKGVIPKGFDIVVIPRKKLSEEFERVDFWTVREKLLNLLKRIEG
The experiment in a line: Real-time fluorescence-based RNase P activity assay with bipartite pre-tRNA substrate. The conditions noted are these: fluorescent bipartite pre-tRNA substrate, holoenzyme 33 nM, 10% PEG 200 in place of DMSO. The format is biochemical. The method, then: The reconstitution of the RNase P holoenzyme was performed as described in ([40],[19]). This protocol produces a homogeneous and functional ribozyme that can be crystallized by mixing P RNA and P protein in a 1:1.1 molar ratio in 1× TH buffer (33 mM Tris–HCl, 66 mM HEPES, pH 7.4) and 400 mM ammonium acetate (AmOAc). The mixture was heated to 95°C for 2 min in a water bath, then chilled on ice for 2 min, after which MgCl2 was added to a final concentration of 100 mM. […] This higher concentration was used in all experiments described herein. The holoenzyme was further incubated at 50°C for 10 min and 37°C for 40 min. The final concentration of holoenzyme was 333 nM (35.6 μg/ml of P RNA and 4.7 μg/ml of P protein).
The bipartite pre-tRNA substrate derived from pre-tRNA^Phe from T. maritima (Supplementary Figure S13) was designed for the ease of chemical synthesis and conceived from the fact that the anticodon loop is not required for RNase P recognition (Reiter et al.). As for the Mh substrate, fluorescent bipartite pre-tRNA was coupled to Black Hole Quencher 1 (BHQ1) at the 5′-end of the 5′ oligo, and to Alexa Fluor 488 at the 3′-end of the 3′ oligo (see Supplementary Table S1). The probes were purchased from Integrated DNA Technologies (IDT). A requested scale of 250 nmol yielded 27.4 nmol (0.36 mg) for the 5′ oligo and 3.8 nmol (50 μg) for the 3′ fluorescent oligo. Before use, the probes were diluted from a 100 μM stock (dissolved in water) and assembled by mixing and heating to 3.6 μM in activity buffer L (Tris–HCl pH 7.4 33 mM, HEPES 66 mM, 100 mM AmOAc and 10 mM MgCl2).
Reactions were performed in a total volume of 20 μl. Pipetting was done by hand using multichannel pipettes. First, an 18 μl reaction mixture containing 16.5 μl of activity buffer (H for Mh or L supplemented with 10% PEG 200 for bipartite pre-tRNA) and 270 nM (Mh) or 135 nM (bipartite pre-tRNA) (1.5 or 0.7 μl of the 3.6 μM stock) of the fluorescent substrate probe was pre-incubated on ice for at least 5 m in a black polystyrene 384-well microtiter microplate with a flat transparent bottom (Corning ref 3540). The holoenzyme was then added at a final concentration of 33 nM (2 μl of a 333 nM stock) in 1× TH buffer and mixed. Kinetic activity was monitored in a Synergy MX Multimode Detector (BioTek) at 37°C with rapid agitation. At least 20 readings were taken per well every 15 s. The probe was excited at 485 nm, and its emission was monitored at 535 nm with an integration time of 1 s. From the plots of relative fluorescent units (RFU) versus time, linear regression was used to determine the slopes in the linear portion of the curves, using at least 12 data points to obtain initial velocities. Non-linear fitting to obtain the Michaelis–Menten parameters was performed using GraphPad Prism® 6.01 software. […]

Experiment [2] has as its target T2, RNase P holoenzyme (Thermotoga maritima, UniProt Q9X1H4).
T2 construct: GST (cleaved yes); made in house; host or cells: E. coli BL21(DE3)pLysS
T2 sequence (Q9X1H4 1-117): T1 sequence (Q9X1H4 1-117)
Nature of the experiment: Displacement of pre-tRNA from the holoenzyme (BLI). The format is binding, T. maritima. The settings on record: holoenzyme on Ni-NTA biosensors, compound 0–400 μM, then pre-tRNA. The method, then:
Real-time binding assays of the holoenzyme, P RNA, P protein, the substrate minihelix and the 5′-leader to individual compounds were performed by biolayer interferometry using an Octet RED96 system (ForteBio). For the holoenzyme or P RNA, a 5′ biotinylated RNA oligonucleotide with the sequence 5′biotin-CAUUCCAGACGAU was immobilized on Super Streptavidin (SSA) biosensors. Then, a modified P RNA or holoenzyme was added. The P RNA modification consisted of a sequence with part of the P1 stem sequence complementary to the biotinylated oligonucleotide (AUCGUCUGGA) (Supplementary Figure S23A). P1 is far from the active site or other regions involved in specific interactions (Supplementary Figure S23B) ([19]). The activity of this construct was indistinguishable from the wild-type holoenzyme. Alternatively, the holoenzyme was immobilized through the His-tagged P protein from T. maritima at 0.05 mg/ml (3.4 μM) on Ni-NTA biosensors. Control biosensors were used to subtract non-specific binding of compounds to the biosensor surface. All assay steps (immobilization, wash, baseline, association, and dissociation) were performed in 20 mM HEPES pH 7.4, 100 mM ammonium acetate, 10 mM MgCl2, 2.5% DMSO. The assays were performed on black bottom 96-well microplates (Greiner Bio-One 655209) in a total volume of 200 μl, at 30°C with orbital shaking at 1000 rpm. Experiments were controlled with the software Data Acquisition 8.2 (ForteBio, Inc.). Kinetic binding parameters were calculated using Data Analysis 8.2 (ForteBio, Inc.). After subtraction of reference biosensors, the binding curves were aligned to the X- and Y-axis and the association-dissociation inter-step curve in order to get a common baseline for the association and dissociation phases.
Figure 4. Characterization of the inhibition of T. maritima RNase P by purpurin. (A) Best global fit for inhibition of RNase P in the presence of varying concentrations of fluorescent Mh substrate. […] Symbols represent the mean ± standard error as determined from three independent experiments at each concentration. See also Supplementary Figure S18. […] Binding sensorgrams obtained by biolayer interferometry (BLI). RNase P holoenzyme at 400 nM was immobilized on Ni-NTA. […] Binding sensorgrams obtained by biolayer interferometry (BLI). RNase P holoenzyme was immobilized on Ni-NTA biosensors, incubated with purpurin at varying concentrations (0–400 μM), and then the association and dissociation pre-tRNA was monitored. […] See also Supplementary Figure S17.

The structures appear in SMILES notation.

Usually IC50 stands for the concentration needed to halve the response being measured. Regarding `O=C1C=C2CC3(O)COc4c(ccc(O)c4O)C3=C2C=C1O` (stereo not drawn) [Hematein, 3,4,6a,10-tetrahydroxy-6a,7-dihydroindeno[2,1-c]chromen-9(6H)-one], the half-inhibitory concentration (IC50) in experiment [1] was 87.9 ± 19.7 µM. In addition, in experiment [2], the “Dose–response displacement of pre-tRNA” value was “No”.

On to `O=C1c2ccccc2C(=O)c2c(O)c(O)cc(O)c21` [Purpurin, 1,2,4-trihydroxyanthraquinone], for which the half-maximal inhibitory concentration (IC50) in experiment [1] is 13.1 ± 2.3 µM. For the same molecule, the “Dose–response displacement of pre-tRNA” value in experiment [2] was “displaces bound pre-tRNA in a dose-response behavior and Yes”.

Turning to `O=C1C=CC(=O)c2c(O)cccc21` [Juglone, 5-hydroxy-1,4-naphthoquinone], the half-maximal inhibitory concentration (IC50) in experiment [1] was found to be 11.9 ± 1.7 µM. Further, the “Dose–response displacement of pre-tRNA” value in experiment [2] is given as “No”.
